# Reference: patent US6737383B1, “Herbicidal oxadiazolidines” (priority 1999, dated 2004)
# Assays:
# winter wheat [1] = assay: Test E winter wheat; assay type: in vivo, Triticum aestivum; settings: Preemergence
# Green foxtail [2] = assay: Test D green foxtail; assay type: in vivo; settings: Preemergence, 0 to 100 scale
# Summary of the method: (§1)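 Greenhouse pots, seeds in sandy loam; compounds formulated in non-phytotoxic solvent with surfactant; preemergence treatments went on the soil surface within one day of planting. Injury rated visually 14 to 21 days after application on a 0 (none) to 100 (complete control) scale.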
# winter wheat [3] = assay: Test E winter wheat; assay type: in vivo, Triticum aestivum; settings: Postemergence
# Summary of the method: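 Each compound, carried in a non-phytotoxic solvent blend including surfactant, was applied (postemergence: over the top of young plants at 1- to 4-leaf stage). Plants stayed in the greenhouse about 21 to 28 days before visual comparison with untreated controls.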
# giant foxtail = assay: Test B pre/postemergence giant foxtail; assay type: in vivo, Setaria faberii
# Summary of the method: (§2)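 Test chemicals in a non-phytotoxic solvent mixture with surfactant were sprayed preemergence onto planted seeds and postemergence onto plants 2 to 18 cm tall (1- to 4-leaf stage). After twelve to sixteen days in a greenhouse, injury was visually rated against untreated controls from 0 (no effect) to 10 (complete control).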
# purple nutsedge = assay: Test B pre/postemergence purple nutsedge; assay type: in vivo, Cyperus rotundus
# Summary of the method: as §2
# Italian ryegrass = assay: Test E Italian ryegrass; assay type: in vivo, Lolium multiflorum; settings: Preemergence
# blackgrass [4] = assay: Test B pre/postemergence blackgrass; assay type: in vivo, Alopecurus myosuroides
# Summary of the method: as §2
# Green foxtail [5] = assay: Test D green foxtail; assay type: in vivo
# Summary of the method: as §1
# bermuda-grass = assay: Test D bermudagrass; assay type: in vivo, Cynodon dactylon; settings: Preemergence, 0 to 100 scale
# Summary of the method: as §1
# dallisgrass = assay: Test D dallisgrass; assay type: in vivo, Paspalum dilatatum; settings: Preemergence, 0 to 100 scale
# Summary of the method: as §1
# green foxtail [6] = assay: Test E green foxtail; assay type: in vivo, Setaria viridis; settings: Preemergence
# wheat = assay: Test B pre/postemergence wheat; assay type: in vivo, Triticum aestivum
# Summary of the method: as §2
# blackgrass [7] = assay: Test E blackgrass; assay type: in vivo, Alopecurus myosuroides; settings: Preemergence
# winter barley = assay: Test E winter barley; assay type: in vivo, Hordeum vulgare; settings: Preemergence
# wild oat = assay: Test E wild oat; assay type: in vivo, Avena fatua; settings: Preemergence, 0 to 100 scale where 0 is no effect and 100 is complete control
# [8] = Rate 500 g/ha, 0 to 100 scale where 0 is no effect and 100 is complete control
# [9] = Rate 1000 g/ha, 0 to 100 scale where 0 is no effect and 100 is complete control
# [10] = Postemergence, Rate 62 g/ha, scale 0 to 10, 0 is no effect, 10 is complete control
# [11] = Postemergence, Rate 250 g/ha, scale 0 to 10, 0 no effect, 10 complete control
# [12] = Preemergence, Rate 31 g/ha, visual rating, scale 0 to 10 (0 no effect, 10 complete control)
# [13] = Preemergence, Rate 62 g/ha, scale 0 to 10, 0 is no effect, 10 is complete control
# [14] = Preemergence, Rate 125 g/ha, scale 0 to 10 (0 no effect, 10 complete control)
# [15] = Preemergence, Rate 250 g/ha, scale of 0 to 10 where 0 is no effect and 10 is complete control
# [16] = Rate 31 g/ha, Postemergence, scale 0 to 10
# [17] = Rate 125 g/ha, Postemergence, scale 0 to 10, 0 no effect, 10 complete control
# [18] = Rate 64 g/ha, Preemergence; 0 to 100 scale, 0 no injury, 100 complete control
# [19] = Rate 125 g/ha, Preemergence; 0 to 100 scale, 0 no injury, 100 complete control
# [20] = Rate 16 g/ha, 0 no injury, 100 complete control
# [21] = Rate 32 g/ha, 0 no injury, 100 complete control
# [22] = Rate 64 g/ha, 0 no injury, 100 complete control
# [23] = Rate 125 g/ha, 0 no injury, 100 complete control
compound,measurement,setting,value
COc1ccccc1-n1c(=O)on(C(=O)N(c2ccc(F)cc2)C(C)C)c1=O [Compound 30],"Plant response rating, Wheat (winter)","winter wheat [1]; Rate 250 g/ha, 0 to 100 scale",0
same,"Plant response rating, Wheat (winter)",winter wheat [1]; [8],0
same,"Plant response rating, Wheat (winter)",winter wheat [1]; [9],0
same,"Plant response rating, Green foxtail",Green foxtail [2]; Rate 250 g/ha,100
same,"Plant response rating, Green foxtail",Green foxtail [2]; Rate 500 g/ha,100
same,"Plant response rating, Wheat (winter)","winter wheat [3]; Rate 250 g/ha, 0 to 100 scale (0 no effect, 100 complete control)",0
same,"Plant response rating, Wheat (winter)","winter wheat [3]; Rate 1000 g/ha, 0 to 100 scale, 0 is no effect and 100 is complete control",0
same,"Plant response rating, Wheat (winter)","winter wheat [3]; Rate 500 g/ha, 0 to 100 scale, 0 no effect, 100 complete control",0
same,Giant foxtail plant response rating,giant foxtail; [10],0
same,Giant foxtail plant response rating,giant foxtail; [11],3
same,Giant foxtail plant response rating,giant foxtail; [12],2
same,"Plant response rating, Giant foxtail",giant foxtail; [13],2
same,"Plant response rating, Giant foxtail",giant foxtail; [14],3
same,"Plant response rating, Giant foxtail",giant foxtail; [15],10
same,Giant foxtail plant response rating,giant foxtail; [16],0
same,Giant foxtail plant response rating,giant foxtail; [17],2
same,Nutsedge plant response rating,purple nutsedge; [10],0
same,Nutsedge plant response rating,purple nutsedge; [11],0
same,Nutsedge plant response rating,purple nutsedge; [12],0
same,"Plant response rating, Nutsedge",purple nutsedge; [13],0
same,"Plant response rating, Nutsedge",purple nutsedge; [14],0
same,"Plant response rating, Nutsedge",purple nutsedge; [15],0
same,Nutsedge plant response rating,purple nutsedge; [16],0
same,Nutsedge plant response rating,purple nutsedge; [17],0
same,"Plant response rating, I. Ryegrass","Italian ryegrass; Rate 250 g/ha, 0 to 100 scale",20
same,"Plant response rating, I. Ryegrass",Italian ryegrass; [8],40
same,"Plant response rating, I. Ryegrass",Italian ryegrass; [9],50
same,Blackgrass plant response rating,blackgrass [4]; [10],0
same,Blackgrass plant response rating,blackgrass [4]; [11],2
same,Blackgrass plant response rating,blackgrass [4]; [12],0
same,"Plant response rating, Blackgrass",blackgrass [4]; [13],3
same,"Plant response rating, Blackgrass",blackgrass [4]; [14],3
same,"Plant response rating, Blackgrass",blackgrass [4]; [15],7
same,Blackgrass plant response rating,blackgrass [4]; [16],0
same,Blackgrass plant response rating,blackgrass [4]; [17],0
same,"Plant response rating, Green foxtail","Green foxtail [5]; Preemergence; Rate 16 g/ha; 0 to 100 scale, 0 no injury, 100 complete control",0
same,"Plant response rating, Green foxtail","Green foxtail [5]; Preemergence; Rate 32 g/ha; 0 to 100 scale, 0 no injury, 100 complete control",50
same,"Plant response rating, Green foxtail","Green foxtail [5]; Rate 16 g/ha; Preemergence; 0 to 100 scale, 0 no injury, 100 complete control",0
same,Green foxtail plant response rating,Green foxtail [5]; [18],85
same,"Plant response rating, Green foxtail",Green foxtail [5]; [18],85
same,Green foxtail plant response rating,Green foxtail [5]; [19],85
same,"Plant response rating, Green foxtail",Green foxtail [5]; [19],85
same,"Plant response rating, Green foxtail",Green foxtail [5]; Rate 250 g/ha; Preemergence; 0 to 100 scale,100
same,"Plant response rating, Green foxtail","Green foxtail [5]; Rate 500 g/ha, Preemergence; 0 to 100 scale",100
same,"Plant response rating, Bermudagrass",bermuda-grass; [20],50
same,"Plant response rating, Bermudagrass",bermuda-grass; [21],65
same,"Plant response rating, Bermudagrass",bermuda-grass; [22],98
same,"Plant response rating, Bermudagrass",bermuda-grass; [23],98
same,"Plant response rating, Bermudagrass",bermuda-grass; Rate 250 g/ha,98
same,"Plant response rating, Bermudagrass",bermuda-grass; Rate 500 g/ha,100
same,"Plant response rating, Dallisgrass",dallisgrass; [20],0
same,"Plant response rating, Dallisgrass",dallisgrass; [21],0
same,"Plant response rating, Dallisgrass",dallisgrass; [22],50
same,"Plant response rating, Dallisgrass",dallisgrass; [23],60
same,"Plant response rating, Dallisgrass",dallisgrass; Rate 250 g/ha,80
same,"Plant response rating, Dallisgrass",dallisgrass; Rate 500 g/ha,100
same,"Plant response rating, Green foxtail","green foxtail [6]; Rate 250 g/ha, 0 to 100 scale",30
same,"Plant response rating, Green foxtail",green foxtail [6]; [8],60
same,"Plant response rating, Green foxtail",green foxtail [6]; [9],60
same,Wheat plant response rating,wheat; [10],0
same,Wheat plant response rating,wheat; [11],0
same,Wheat plant response rating,wheat; [12],0
same,"Plant response rating, Wheat",wheat; [13],0
same,"Plant response rating, Wheat",wheat; [14],0
same,"Plant response rating, Wheat",wheat; [15],2
same,Wheat plant response rating,wheat; [17],0
same,"Plant response rating, Blackgrass","blackgrass [7]; Rate 250 g/ha, 0 to 100 scale",30
same,"Plant response rating, Blackgrass",blackgrass [7]; [9],30
same,"Plant response rating, Barley (winter)","winter barley; Rate 250 g/ha, 0 to 100 scale",10
same,"Plant response rating, Barley (winter)",winter barley; [8],10
same,"Plant response rating, Barley (winter)",winter barley; [9],10
same,"Plant response rating, Wild oat",wild oat; Rate 500 g/ha,10
same,"Plant response rating, Wild oat",wild oat; Rate 1000 g/ha,20
